In patent US7465741B2, “C-substituted tricyclic isoxazoline derivatives and their use as anti-depressants” (Janssen Pharmaceutica N.V., priority 2002, dated 2008):
Structures can show the parent of a compound that is named as a salt.

Key:
hα2A receptor = target: T1, hα2A receptor (Homo sapiens, UniProt P08913); test: Radioligand binding experiment for hα2A receptor ([3H]-raulwolscine, CHO cell membranes); details: [3H]-raulwolscine 1 nM, membranes of CHO cells transfected with human α2A receptor; read-out: pIC50 hα2A (converted)
T1 construct: expressed in transfected cells; host or cells: CHO cells
T1 sequence (P08913 1-465): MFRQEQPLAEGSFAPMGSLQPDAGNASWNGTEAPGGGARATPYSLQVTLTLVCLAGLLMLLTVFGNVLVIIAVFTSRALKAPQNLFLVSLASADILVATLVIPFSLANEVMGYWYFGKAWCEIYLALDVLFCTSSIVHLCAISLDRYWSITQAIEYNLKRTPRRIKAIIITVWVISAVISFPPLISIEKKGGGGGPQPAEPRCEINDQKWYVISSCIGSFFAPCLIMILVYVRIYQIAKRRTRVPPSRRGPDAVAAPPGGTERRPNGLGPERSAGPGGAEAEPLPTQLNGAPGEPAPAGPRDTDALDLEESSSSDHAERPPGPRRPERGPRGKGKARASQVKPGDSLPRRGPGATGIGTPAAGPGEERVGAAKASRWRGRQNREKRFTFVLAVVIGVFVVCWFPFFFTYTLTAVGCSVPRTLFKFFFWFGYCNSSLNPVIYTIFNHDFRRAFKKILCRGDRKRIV
Protocol: (§1) The interaction of the compounds according to Formula (I) with hα2-receptors and h5-HT-transporters was assessed in in vitro radioligand binding experiments. In general, a low concentration of a radioligand with a high binding affinity for a particular receptor or transporter is incubated with a sample of a tissue preparation enriched in a particular receptor or transporter or with a preparation of cells expressing cloned human receptors in a buffered medium. During the incubation, the radioligand binds to the receptor or transporter. When equilibrium of binding is reached, the receptor bound radioactivity is separated from the non-bound radioactivity, and the receptor- or transporter-bound activity is counted. The interaction of the test compounds with the receptor is assessed in competition binding experiments. Various concentrations of the test compound are added to the incubation mixture containing the receptor- or transporter preparation and the radioligand. The test compound in proportion to its binding affinity and its concentration inhibits binding of the radioligand. The radioligand used for hα2A, hα2B and hα2C receptor binding was [^3H]-raulwolscine and for the h5-HT transporter was [^3H]paroxetine.
(§2) CHO cells, stabile transfected with human adrenergic-α2A-, —α2B or α2C receptor cDNA, were cultured in Dulbecco's Modified Eagle's Medium (DMEM)/Nutrient mixture Ham's F12 (ratio 1:1)(Gibco, Gent-Belgium) supplemented with 10% heat inactivated fetal calf serum (Life Technologies, Merelbeke-Belgium) and antibiotics (100 IU/ml penicillin G, 100 μg/ml streptomycin sulphate, 110 μg/ml pyruvic acid and 100 μg/ml L-glutamine). One day before collection, cells were induced with 5 mM sodiumbutyrate. Upon 80-90% of confluence, cells were scraped in phosphate buffered saline without Ca^2+ and Mg^2+ and collected by centrifugation at 1500×g for 10 min. The cells were homogenised in Tris-HCl 50 mM using an Ultraturrax homogenizer and centrifuged for 10 min at 23,500×g. The pellet was washed once by resuspension and rehomogenization and the final pellet was resuspended in Tris-HCl, divided in 1 ml aliquots and stored at −70° C.
(§3) Membranes were thawed and re-homogenized in incubation buffer (glycylglycine 25 mM, pH 8.0). In a total volume of 500 μl, 2-10 μg protein was incubated with [^3H]raulwolscine (NET-722) (New England Nuclear, USA) (1 nM final concentration) with or without competitor for 60 min at 25° C. followed by rapid filtration over GF/B filter using a Filtermate196 harvester (Packard, Meriden, Conn.). Filters were rinsed extensively with ice-cold rinsing buffer (Tris-HCl 50 mM pH 7.4). Filter-bound radioactivity was determined by scintillation counting in a Topcount (Packard, Meriden, Conn.) and results were expressed as counts per minute (cpm). Non-specific binding was determined in the presence of 1 μM oxymetazoline for hα2A- and hα2B receptors and 1 μM spiroxatrine for hα2C receptors.
(§4) Data from assays in the presence of compound were calculated as a percentage of total binding measured in the absence of test compound. Inhibition curves, plotting percent of total binding versus the log value of the concentration of the test compound, were automatically generated, and sigmoidal inhibition curves were fitted using non-linear regression. The pIC50 values of test compounds were derived from individual curves.

hα2B receptor = target: T2, hα2B receptor (Homo sapiens, UniProt P18089); test: Radioligand binding experiment for hα2B receptor ([3H]-raulwolscine, CHO cell membranes); details: [3H]-raulwolscine 1 nM, membranes of CHO cells transfected with human α2B receptor; read-out: pIC50 hα2B (converted)
T2 construct: expressed in transfected cells; host or cells: CHO cells
T2 sequence (P18089 1-450): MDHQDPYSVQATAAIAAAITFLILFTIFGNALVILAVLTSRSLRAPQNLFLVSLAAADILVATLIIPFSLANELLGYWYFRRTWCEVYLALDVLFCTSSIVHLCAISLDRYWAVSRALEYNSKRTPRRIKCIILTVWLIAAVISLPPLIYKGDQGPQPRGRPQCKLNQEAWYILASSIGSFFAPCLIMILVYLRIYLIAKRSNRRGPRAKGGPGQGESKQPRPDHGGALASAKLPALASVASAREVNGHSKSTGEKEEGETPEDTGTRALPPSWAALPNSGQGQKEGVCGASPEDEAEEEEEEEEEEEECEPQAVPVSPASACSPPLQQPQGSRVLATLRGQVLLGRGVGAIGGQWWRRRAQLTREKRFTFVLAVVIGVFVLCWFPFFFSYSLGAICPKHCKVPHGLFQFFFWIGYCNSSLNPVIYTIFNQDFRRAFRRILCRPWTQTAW
Protocol: as §1, §2, §3, §4

h5-HT transporter = target: T3, h5-HT transporter (Homo sapiens, UniProt P31645); test: Radioligand binding experiment for 5-HT transporter ([3H]paroxetine, human platelet membranes); details: [3H]paroxetine 0.5 nM, read-out: pIC50 h5HTT (converted)
T3 construct: Human platelet membranes (Oceanix Biosciences Corporation, Hanover, Md., USA) were thawed; tissue Oceanix Biosciences Corporation; host or cells: human platelet membranes
T3 sequence (P31645 whole entry): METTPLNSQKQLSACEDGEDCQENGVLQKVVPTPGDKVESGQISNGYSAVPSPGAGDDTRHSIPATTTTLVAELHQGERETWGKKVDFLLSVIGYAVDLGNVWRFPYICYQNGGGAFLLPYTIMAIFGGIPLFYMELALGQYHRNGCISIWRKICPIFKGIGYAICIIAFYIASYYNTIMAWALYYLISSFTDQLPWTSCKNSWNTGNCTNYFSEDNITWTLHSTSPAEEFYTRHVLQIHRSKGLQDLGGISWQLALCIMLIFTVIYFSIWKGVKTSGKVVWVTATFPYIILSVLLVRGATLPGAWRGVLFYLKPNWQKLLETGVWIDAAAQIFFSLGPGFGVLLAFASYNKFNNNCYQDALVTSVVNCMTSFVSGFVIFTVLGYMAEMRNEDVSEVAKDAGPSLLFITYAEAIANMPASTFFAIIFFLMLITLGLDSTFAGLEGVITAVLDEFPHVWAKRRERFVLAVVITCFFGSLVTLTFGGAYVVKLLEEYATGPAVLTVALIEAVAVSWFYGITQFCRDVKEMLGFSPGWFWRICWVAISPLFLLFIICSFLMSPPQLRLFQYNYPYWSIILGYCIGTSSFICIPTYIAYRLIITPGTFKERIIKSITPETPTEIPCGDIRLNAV
Protocol: as §1
Human platelet membranes (Oceanix Biosciences Corporation, Hanover, Md., USA) were thawed, diluted in buffer (Tris-HCl 50 mM, 120 mM NaCl and 5 mM KCl) and quickly (max 3 s) homogenised with an Ultraturrax homogenizer. In a total volume of 250 μL, 50-100 μg protein was incubated with [^3H]paroxetine (NET-869) (New England Nuclear, USA) (0.5 nM final concentration) with or without competitor for 60 min at 25° C. Incubation was stopped by rapid filtration of the incubation mixture over GF/B filters, pre-wetted with 0.1% polyethyleneamine, using a Filtermate 196 harvester (Packard, Meriden, Conn.). Filters were rinsed extensively with ice-cold buffer and radioactivity on the filters was counted in a Topcount liquid scintillation counter (Packard, Meriden, Conn.). Data were expressed as cpm. Imipramine (at 1 μM final concentration) was used to determine the non-specific binding.
as §4

hα2C receptor = target: T4, hα2C receptor (Homo sapiens, UniProt P18825); test: Radioligand binding experiment for hα2C receptor ([3H]-raulwolscine, CHO cell membranes); details: [3H]-raulwolscine 1 nM, membranes of CHO cells transfected with human α2C receptor; read-out: pIC50 hα2C (converted)
T4 construct: expressed in transfected cells; host or cells: CHO cells
T4 sequence (P18825 1-462): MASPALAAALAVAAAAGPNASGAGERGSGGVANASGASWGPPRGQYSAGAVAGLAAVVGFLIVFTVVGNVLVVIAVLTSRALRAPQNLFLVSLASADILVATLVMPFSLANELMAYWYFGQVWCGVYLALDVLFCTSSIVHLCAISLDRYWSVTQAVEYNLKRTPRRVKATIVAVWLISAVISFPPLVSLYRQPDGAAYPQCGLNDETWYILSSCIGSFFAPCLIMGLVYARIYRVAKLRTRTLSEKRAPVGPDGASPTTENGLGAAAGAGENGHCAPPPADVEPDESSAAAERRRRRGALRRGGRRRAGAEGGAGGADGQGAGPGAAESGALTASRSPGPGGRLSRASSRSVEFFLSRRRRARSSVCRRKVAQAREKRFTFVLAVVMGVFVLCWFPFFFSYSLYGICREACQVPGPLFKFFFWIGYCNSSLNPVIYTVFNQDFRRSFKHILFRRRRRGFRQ
Protocol: as §1, §2, §3, §4

| IC50 (hα2A receptor) | IC50 (hα2B receptor) | IC50 (h5-HT transporter) | IC50 (hα2C receptor) | melting point | Compound |
| --- | --- | --- | --- | --- | --- |
| 15.8 nM | 6.31 nM | 10 nM | 3.16 nM | 56.1 to 68 °C | COc1cc2c(cc1CN1CCOCC1)OCC1C2=NOC1CN1CCN(CC(C)=Cc2ccccc2)CC1 (single isomer, unassigned) [Compound 21] |
| 15.8 nM | – | – | 10 nM | 150.1 to 171.8 °C | COc1cc2c(cc1-c1ccc(C(C)=O)s1)OCC1C2=NOC1CN1CCN(CC(C)=Cc2ccccc2)CC1 (stereo not drawn) [Compound 18, 1-(5-{8-Methoxy-3-[4-(2-methyl-3-phenyl-allyl)-piperazin-1-ylmethyl]-3a,4-dihydro-3H-chromeno[4,3-c]isoxazol-7-yl}-thiophen-2-yl)-ethanone] |
| – | – | – | – | 228.6 to 252.1 °C | CC(=Cc1ccccc1)CN1CCN(CC2ON=C3c4ccc(CN(C)CCO)cc4OCC32)CC1 (stereo not drawn) (as salt: HCl) [Compound 9, 2-(Methyl-{3-[4-(2-methyl-3-phenyl-allyl)-piperazin-1-ylmethyl]-3a,4-dihydro-3H -chromeno[4,3-c]isoxazol-7-ylmethyl}-amino)-ethanol] |
| 1.58 nM | – | 126 nM | 0.501 nM | 132.2 to 146.7 °C | C/C(=C\c1ccccc1)CN1CCN(CC2ON=C3c4ccc(C#N)cc4OCC32)CC1 (stereo not drawn) [Compound 13, 3-[4-(2-Methyl-3-phenyl-allyl)-piperazin-1-ylmethyl]-3a,4-dihydro-3H -chromeno[4,3-c]isoxazole-7-carbonitrile] |
| 398 nM | 20 nM | 20 nM | 50.1 nM | 66.5 to 89.8 °C | COc1cc2c(cc1CN1CCOCC1)OCC1C2=NOC1CN1CCN(CC(C)=Cc2ccccc2)CC1 (single isomer, unassigned) [Compound 20] |
| 6.31 nM | 3.98 nM | 25.1 nM | 0.316 nM | – | COc1cc2c(cc1CN1CCOCC1)OCC1C2=NOC1CN1CCN(C/C(C)=C/c2ccccc2)CC1 (stereo not drawn) [Compound 10, 8-Methoxy-3-[4-(2-methyl-3-phenyl-allyl)-piperazin-1-ylmethyl]-7-morpholin-4-ylmethyl-3a,4-dihydro-3H-chromeno[4,3-c]isoxazole] |
| 3.16 nM | 2.51 nM | 158 nM | 0.794 nM | – | COCc1ccc2c(c1)OCC1C2=NOC1CN1CCN(CC(C)=Cc2ccccc2)CC1 (stereo not drawn) [Compound 5, 7-Methoxymethyl-3-[4-(2-methyl-3-phenyl-allyl)-piperazin-1-ylmethyl]-3a,4-dihydro-3H-chromeno[4,3-c]isoxazole] |
| 6.31 nM | 2.51 nM | 31.6 nM | 0.794 nM | – | COc1cc2c(cc1CN1CCC(C)CC1)OCC1C2=NOC1CN1CCN(CC(C)=Cc2ccc(F)cc2)CC1 (stereo not drawn) [Compound 25] |
